pIC50, pKi: −log10 of the molar value.
How the values were obtained:
JAK3 = target: T1, JAK3 (Homo sapiens, UniProt P52333); assay: JAK3 enzymatic activity assay (Z'-LYTE Biochemical Kinase Assay, 2 hr preincubation at 4° C.); settings: cell free, 1% DMSO, read-out: JAK3 activity cell free (2 hr preincubation at (4° C.) Kj)
T1 construct: purchased Invitrogen, Madison, Wis
T1 sequence (P52333 1-1124): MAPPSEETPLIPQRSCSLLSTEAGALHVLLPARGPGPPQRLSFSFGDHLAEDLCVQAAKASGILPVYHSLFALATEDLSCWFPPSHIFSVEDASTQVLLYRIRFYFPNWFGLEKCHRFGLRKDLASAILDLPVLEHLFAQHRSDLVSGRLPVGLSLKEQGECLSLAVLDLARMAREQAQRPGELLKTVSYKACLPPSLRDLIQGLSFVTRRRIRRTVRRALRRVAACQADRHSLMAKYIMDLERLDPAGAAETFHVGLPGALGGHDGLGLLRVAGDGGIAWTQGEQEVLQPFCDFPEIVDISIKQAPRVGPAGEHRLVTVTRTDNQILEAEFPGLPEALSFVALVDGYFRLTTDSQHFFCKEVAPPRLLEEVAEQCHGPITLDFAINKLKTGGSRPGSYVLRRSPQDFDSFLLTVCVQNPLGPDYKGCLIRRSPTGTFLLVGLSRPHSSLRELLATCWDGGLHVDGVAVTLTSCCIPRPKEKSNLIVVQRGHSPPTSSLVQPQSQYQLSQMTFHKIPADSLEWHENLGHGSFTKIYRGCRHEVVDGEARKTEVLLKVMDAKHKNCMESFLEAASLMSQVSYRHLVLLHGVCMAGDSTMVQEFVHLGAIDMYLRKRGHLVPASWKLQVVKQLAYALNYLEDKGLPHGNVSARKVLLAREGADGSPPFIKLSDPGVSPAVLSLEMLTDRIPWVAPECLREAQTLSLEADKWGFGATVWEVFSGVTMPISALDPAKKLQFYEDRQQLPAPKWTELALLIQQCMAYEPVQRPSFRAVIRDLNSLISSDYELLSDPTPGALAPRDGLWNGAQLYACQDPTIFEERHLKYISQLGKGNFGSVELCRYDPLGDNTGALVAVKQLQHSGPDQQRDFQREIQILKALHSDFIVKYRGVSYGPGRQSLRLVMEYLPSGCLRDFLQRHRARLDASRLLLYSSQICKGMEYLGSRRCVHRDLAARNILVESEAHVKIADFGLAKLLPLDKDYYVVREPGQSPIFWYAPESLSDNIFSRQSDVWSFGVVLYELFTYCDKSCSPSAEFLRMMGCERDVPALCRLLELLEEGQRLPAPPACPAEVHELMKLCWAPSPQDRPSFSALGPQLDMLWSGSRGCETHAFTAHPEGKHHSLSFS
Description: The assays were performed according to manufacturer's protocols, except that prior to the kinase reaction they were pre-incubated for 2 hours at 4° C., in order to be able to assay for time-dependent inhibition.
In addition to the compound, each 10 μL JAK3 kinase reaction contained 0.43-1.89 ng JAK3 and 2 μM peptide substrate in 50 mM HEPES (pH 7.5), 0.01% BRIJ-35, 10 mM MgCl2 and 1 mM EGTA. The kinase reaction was allowed to proceed for 1 hour.

hLM T½ (stability) = type: in vitro ADME; settings: human, liver microsomes
Namalwa cells = assay: Proliferation of Namalwa cells (Cell Titer-Glo); settings: Homo sapiens, B-cell, outcome-based, read-out: IC50 Proliferation Namalwa cells (Burkitt's Lymphoma)
Ramos cells = assay: Proliferation of Ramos cells (Cell Titer-Glo); settings: Homo sapiens, B cells, outcome-based, read-out: IC50 Proliferation Ramos cells (Burkitt's lymphoma)
RS4; 11 cells = assay: Proliferation of RS4; 11 cells (Cell Titer-Glo); settings: Homo sapiens, B cells, outcome-based, read-out: IC50 Proliferation RS4, 11 cells (ALL)
Description: Growth inhibitory activity against the human tumor cell lines, RS4; 11 and Daudi was determined using Promega's Cell Titer-Glo® assay. The human tumor cells were placed in a 96-well microculture plate (Costar white, flat bottom #3917) in a total volume of 90 μL/well. After 24 hours of incubation in a humidified incubator at 37° C. with 5% CO2 and 95% air, […] serially diluted test agents in growth medium were added to each well. After 96 total hours of culture in a CO2 incubator, the plated cells and Cell Titer-Glo® (Promega # G7571) reagents were brought to room temperature to equilibrate for 30 minutes. 100 μL of Cell Titer-Glo® reagent was added to each well. The plate was shaken for 2 minutes and then left to equilibrate for 10 minutes before reading luminescence on the Tecan GENios microplate reader.
Percent inhibition of cell growth was calculated relative to untreated control wells. All tests were performed in duplicate at each concentration level. The IC50 value for the test agents was estimated using Prism 3.03 by curve-fitting the data using the following four parameter-logistic equation: […]

## O=C(CN1CCOCC1)Nc1cccc(-c2nc(-c3c[nH]c(C(=O)N4CCCC4)c3)cs2)c1 [7A, 2-morpholino-N-(3-(4-(5-(pyrrolidine-1-carbonyl)-1H-pyrrol-3-yl)thiazol-2-yl)phenyl)acetamide]
JAK3
  pKi: 5.00 to 5.96
hLM T½ (stability)
  half-life: 36 min
Namalwa cells
  pIC50: 4.55
Ramos cells
  pIC50: 6.27
RS4; 11 cells
  pIC50: 6.30

— patent US8937065B2, “Compositions and methods for modulating a kinase” (Clevexel Pharma, priority 2011, dated 2015)
